Test results taken from US20130259929A1, “USE OF A PHOSPHOPEPTIDE ABLE TO BLOCK HER3/P85 INTERACTION FOR THE TREATMENT OF HER2 HYPER-EXPRESSING TUMOURS” (priority 2010, published 2013).
Non-standard residues stand in square brackets, D forms with d. No end group written: not given here. pY = N[C@@H](Cc1ccc(OP(=O)(O)O)cc1)C(=O)O

What was measured:
HER2 = HER2 expression level and ErbB-2 homodimer (Western blot) after peptide transfection; assay type: cell-based, human
Method: (§1) Treatments and lmmunodecorations. […] Briefly the cells have been plated at 5×10^5 concentration in 60 mm plates. […] At the end of the treatment the cells have been lysed with RIPA buffer [150 mM NaCl, 1% NP-40, 0,5% sodium deoxycholate (DOC), 0.1% SDS, 50 mM TrisHCl (pH 8), 1 mM PMSF, 1 mM EGTA, 50 mM NaF, 50 mM Na3VO4 and protease inhibitors (Roche, Milano, IT)] in order to analyze the expression levels of phosphorylated and total ErbB-3, ErbB-2, ERK and HSP-70 proteins. In order to analyze the levels of Akt phosphorylation and expression, the cells have been lysed in NP-40 buffer [1% NP-40, 10% glycerol, 137 mM NaCl, 20 mM TrisHCl (pH 7.4), 50 mM NaF, 1 mM PMSF, 5 mM Na3VO4, protease inhibitors (Roche, Milano, IT)]. Cell lysates have been incubated on ice for 20 minutes and centrifuged at 14000 rpm for 20 minutes. RIPA buffer obtained cell extracts have been boiled for 5 minutes at 95° C., while NP40 buffer lysed samples have been boiled at 65° C. for 5 minutes. Samples have been subjected to SDS-PAGE and transferred on nitrocellulose filters (Bio-Rad, Milan, IT). Then the filters have been incubated with interest antibodies, washed and incubated with specific secondary horse radish peroxidase (HRP) conjugated antibodies. After thorough washing, nitrocellulose peroxidase activity has been detected by chemiluminescence (Lite-blot-Euroclone, Milano, IT)

[1] = tested on: PI3K activity measured as Akt phosphorylation; test: Akt phosphorylation (Western blot) after peptide transfection; assay type: cell-based, human; settings: for inhibition of PI3K activity measured as inhibition level of Akt phosphorylation: MCF7 cells, peptide transfection at different doses (FIG. 12)
Method: Peptide transfection. In order to inhibit the p85 and ErbB3 interaction, MCF7, BT474 and MDA-MB-453 cell lines have been transfected using 80, 100, and 180 μg, respectively, of the following phosphopeptides:
as §1

[2] = target: T1, HER3 binding to GST-N-SH2p85 fusion protein (Homo sapiens, UniProt P27986); test: GST pull-down; settings: lysates of BT474, MCF7 and MDA-MB-453 cells, in vitro (FIG. 2A, FIG. 3)
T1 construct: containing SH2 domains in N-terminal portion of p85 sub-unit
Method: GST pull-down. MCF-7, BT474 and MDA-MB-453 cell lines have been washed 2 times with cold PBS and extracted with lysis buffer [(50 mM Tris HCl (pH 7.4), 250 mM NaCl, 0,1% Triton X-100, 5 mM EDTA, 50 mM NaF, 1 mM PMSF, 5 mM Na3VO4 and 50 mmol/L of protease inhibitors (Roche, Milano, IT)]. After 20 minute ice-cold incubation, the lysates have been clarified by centrifugation at 14000 rpm for 20 minutes. The cellular extracts (1 mg sample) have been incubated for 4 hours at 4° C. in the presence of GST bound gluthatione-agarose beads or GST-p85 fusion protein (kindly supplied by doctor S. Giordano), in the presence or absence of 1257 phosphopeptide or scr peptide used as control. Then the interaction complexes have been washed six times with lysis buffer and subsequently beads eluted using Laemli Buffer 2× [(140 mM SDS, 432 mM Glycerol, 1.6 mM Bromophenol blue, 120 mM Tris HCl (pH 6.8), 8% β-mercaptoethanol)]. The proteins have been separated using 8% SDS-PAGE and transferred on nitrocellulose filter. The filter has been then immunodecorated with anti ErbB3 antibody.
As in FIG. 2A is apparent that 1257 phosphopeptide effectively in vitro binds p85 sub-unit thus inhibiting HER3 receptor binding.

MCF7/Luc cells = test: In vivo growth of peptide-transfected MCF7/Luc cells inoculated s.c.; design: species or system SCID mice
Method: Xeno-grafts. In vivo tests have been carried out using 40 day old SCID female mice (Harlan Laboratories, Milan, IT). At day 0, animals have been totally anesthetized with intramuscular injection of 400 μg/animal (average weight 25 g) of Zoletil (Virbac) containing 0.12% Xylor (Xylazine), and transplanted subcutaneously (s.c.), in intrascapular mouse region with pellet of […] (1.7 mg/sustained release pellet over 60 days, Innovative Research of America, Sarasota, Fla.). On the next day, 5×10^6 proliferating and scr and 1257 peptide previously transfected, as above described, MCF7 or BT474 cells, have been re-suspended in 0.1 ml of Matrigel (BD Biosciences) and subcutaneously inoculated in each mouse. […] Tumour growth has been monitored two times weekly using calibration along two orthogonal axes: length (L) and […]. The tumour volume (V) has been calculated using the formula V=L*(W2)/2. All the procedures relating to animals and treatment thereof have been carried out according institutional guidelines.
Generation of mammary tumour luminescent cells. Mammary tumour MCF7 cell lines stably transfected using pGL4.51 (luc2/CMV/Neo) expression vector, produced by Promega (Me, IT), have been transfected using scr or 1257 phosphopeptide ([…]×5×10^4 cells/mouse) and after 30 h subcutaneously inoculated in SCID mice (5×10^6 cells/mouse) in 200 μl (1:1 Matrigel: cell suspension in serum free medium). Mice have been in vivo imaged 20′ after inoculation and once weekly over 11 weeks. The animals have been anesthetized, as above reported, and subjected to intraperitoneal injection with 200 μl of luciferin (Caliper, Mi, IT); 10′ after incubation photon emission has been analyzed at 3′ minute exposure using Xenogen Ivis Lumina 2 machine. Growth of these cells has been monitored as reported in xenografts section.
Then it has been verified whether 1257 phosphopeptide was effective also in vivo. To this purpose immunocompromised SCID mice have been used. In the presence of oestrogen tablets, 5×10^6 control cells transfected with scr peptide or transfected with 1257 peptide have been injected subcutaneously between mouse scapulae. In order to verify the viability of phosphopeptide transfected cells in animals we have generated a stable luciferase gene expressing MCF7 cell line (MCF7/Luc).

[3] = s.c. inoculation of transfected MCF7 cells, up to 16th week

T1 sequence (P27986 333-428 limits assumed): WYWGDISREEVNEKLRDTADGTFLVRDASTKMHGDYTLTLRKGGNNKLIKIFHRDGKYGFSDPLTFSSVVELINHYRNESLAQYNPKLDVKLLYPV

RDGGGPGGDpYAAMGACPA (RDGGGPGGD[pY]AAMGACPA; listed as Homo sapiens) [1257 phosphopeptide]
total level of HER2 (HER2; after peptide treatment (FIG. 4A), poorly appreciable in MDA-MB-453): decrease
ErbB-2 homodimer levels (HER2; not reducing conditions (FIG. 5B)): favours the formation of ErbB-2 homodimer
phosphorylation of Akt ([1]; MCF7, BT474 and MDA-MB-453 cells (FIG. 4A), Herceptin where combined): inhibition the phosphorylation of Akt
inhibition of PI3K activity measured as inhibition level of Akt phosphorylation [1]: remarkably inhibits Akt phosphorylation
inhibition of PI3K activity measured as inhibition level of Akt phosphorylation ([1]; listed as 1257 peptide): high efficiency
time after transfection for which Akt phosphorylation is inhibited ([1]; stability inside of cell (FIG. 5A)): up to 6 days
inhibition of HER3 and p85 SH2 domain binding [2]: inhibits in specific way HER3 and p85 SH2 domain binding
luminescence of transplanted cells over the time (MCF7/Luc cells; bioluminescence imaging weekly (FIG. 7A)): progressively decreases
time after inoculation at which tumours were calibratable (MCF7/Luc cells; s.c. inoculation of transfected MCF7 cells): about 10 week
animals that displayed tumour (MCF7/Luc cells; [3]): One out of five
reduction of tumour take (MCF7/Luc cells; [3]): 80%
